Legend:
human PTHR1 [1] = biological target: T1, human PTHR1 (Homo sapiens, UniProt Q03431); experiment: cAMP induction (cAMP-responsive luciferase) in HEK293 cells stably expressing human PTHR1; type: cell-based; details: maximal cAMP response, normalized
T1 construct: expressed in transfected cells
T1 sequence (Q03431 27-593): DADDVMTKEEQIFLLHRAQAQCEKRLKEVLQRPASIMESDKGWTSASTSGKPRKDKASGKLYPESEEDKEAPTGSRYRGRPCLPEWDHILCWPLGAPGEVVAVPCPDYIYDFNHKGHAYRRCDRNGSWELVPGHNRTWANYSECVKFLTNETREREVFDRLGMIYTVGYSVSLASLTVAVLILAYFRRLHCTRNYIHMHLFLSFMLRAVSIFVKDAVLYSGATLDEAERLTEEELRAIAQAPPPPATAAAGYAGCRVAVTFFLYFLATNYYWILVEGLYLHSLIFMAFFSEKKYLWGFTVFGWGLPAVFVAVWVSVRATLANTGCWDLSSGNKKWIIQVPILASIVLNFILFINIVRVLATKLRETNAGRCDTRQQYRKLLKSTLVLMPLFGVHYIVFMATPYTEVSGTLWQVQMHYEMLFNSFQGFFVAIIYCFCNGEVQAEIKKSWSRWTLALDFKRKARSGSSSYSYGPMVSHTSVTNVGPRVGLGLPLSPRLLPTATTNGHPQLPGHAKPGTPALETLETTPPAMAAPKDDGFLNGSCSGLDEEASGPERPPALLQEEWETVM
Description: (§1) Measurement of cAMP response. These assays were performed as previously described^27. […] Confluent monolayers of cells were pre-incubated with CO2 independent medium containing D-luciferin (0.5 mM) at 37° C. until a stable baseline level of luminescence was established (20 min). Varying concentrations of ligands were then added, and the time course of luminescence response was recorded using BioTek plate reader.
(§2) Data calculations. Data were processed using Microsoft Excel and GraphPad Prism 6. Data from cAMP dose-response assays were analyzed using a sigmoidal dose-response model with variable slope. Data sets were statistically compared by using Student's t test (two-tailed) assuming unequal variances for the two sets.

PTHR1GFP = experiment: cAMP induction in HEK293 cells stably expressing PTHR1GFP; type: cell-based, human
Description: The GFP-PTHR1 fusion was stably expressed in cells that respond to receptor engagement by activation of a cAMP-sensitive version of luciferase. Exposure of these transfectants to PTH(1-11) yielded the expected dose-response curve with half maximal stimulation at ˜200 nM.
Measurement of cAMP response. These assays were performed as previously described^27. Briefly, HEK-293-derived cell lines that stably express the Glosensor cAMP reporter (Promega Corp.)^30 and PTHR1, a PTHR1 variant, or PTHR2 were seeded into white sided 96 well plates (50,000 cells/well) and grown to confluency. Confluent monolayers of cells were pre-incubated with CO2 independent medium containing D-luciferin (0.5 mM) at 37° C. until a stable baseline level of luminescence was established (20 min). Varying concentrations of ligands were then added, and the time course of luminescence response was recorded using BioTek plate reader. The maximal luminescence response (observed 12-16 min after ligand addition) was used to construct dose-response data sets (Table 4, FIGS. 22A to 22E).
as §2
While there is no structural information for any VHH bound to PTHR1, a mode of interaction was envisioned between the receptor and VHH-PTH conjugates like that depicted in FIG. 12—Panel c. The portion of PTHR1 encoded by exon 2 is not resolved in structural studies (FIG. 12—Panel d)^13, 14, 17, is not important for ligand binding^18, and in past work has been targeted as a site for receptor modification^18, 19. A construct was generated that encodes a PTHR1 variant in which a 14-residue fragment from exon 2 was replaced with a 14-mer epitope tag from the intracellular protein UBC6e (PTHR16E, FIG. 12—Panel d)^20. A receptor construct in which a pH-sensitive green fluorescent protein variant (GFP) was inserted into the portion of the receptor encoded by exon 2 (PTHR1GFP in FIGS. 17A to 17C)^19. Another version of PTHR1 in which yellow fluorescent protein (YFP) replaces the entire extracellular domain (PTHR1YFPΔECD, FIG. 12—Panel e)^21, was also used.

rat PTHR1 = biological target: T2, rat PTHR1 (Rattus norvegicus, UniProt P25961); experiment: cAMP induction in HEK293 cells stably expressing rat PTHR1; type: cell-based; details: maximal cAMP response, normalized
T2 construct: expressed in transfected cells
T2 sequence (P25961 27-591): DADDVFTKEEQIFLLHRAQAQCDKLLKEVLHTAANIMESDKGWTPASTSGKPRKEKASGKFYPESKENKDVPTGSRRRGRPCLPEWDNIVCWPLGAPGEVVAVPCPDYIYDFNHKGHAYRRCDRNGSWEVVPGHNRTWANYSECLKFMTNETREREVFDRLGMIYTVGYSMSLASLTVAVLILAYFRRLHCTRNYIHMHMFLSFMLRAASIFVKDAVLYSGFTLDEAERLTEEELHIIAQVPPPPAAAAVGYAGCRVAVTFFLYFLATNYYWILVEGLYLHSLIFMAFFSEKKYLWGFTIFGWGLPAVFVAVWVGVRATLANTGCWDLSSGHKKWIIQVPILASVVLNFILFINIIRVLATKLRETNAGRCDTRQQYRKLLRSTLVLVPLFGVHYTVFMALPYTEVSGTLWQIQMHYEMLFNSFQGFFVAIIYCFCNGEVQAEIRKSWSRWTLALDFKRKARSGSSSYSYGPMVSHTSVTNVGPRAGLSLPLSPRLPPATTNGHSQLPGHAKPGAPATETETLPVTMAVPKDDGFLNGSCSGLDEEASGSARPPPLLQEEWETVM
Description: as §1, §2

PTHR2 = biological target: T3, PTHR2 (Homo sapiens, UniProt P49190); experiment: cAMP induction in HEK293 cells stably expressing human PTHR2; type: cell-based; details: maximal cAMP response, normalized
T3 construct: expressed in transfected cells
T3 sequence (P49190 25-550): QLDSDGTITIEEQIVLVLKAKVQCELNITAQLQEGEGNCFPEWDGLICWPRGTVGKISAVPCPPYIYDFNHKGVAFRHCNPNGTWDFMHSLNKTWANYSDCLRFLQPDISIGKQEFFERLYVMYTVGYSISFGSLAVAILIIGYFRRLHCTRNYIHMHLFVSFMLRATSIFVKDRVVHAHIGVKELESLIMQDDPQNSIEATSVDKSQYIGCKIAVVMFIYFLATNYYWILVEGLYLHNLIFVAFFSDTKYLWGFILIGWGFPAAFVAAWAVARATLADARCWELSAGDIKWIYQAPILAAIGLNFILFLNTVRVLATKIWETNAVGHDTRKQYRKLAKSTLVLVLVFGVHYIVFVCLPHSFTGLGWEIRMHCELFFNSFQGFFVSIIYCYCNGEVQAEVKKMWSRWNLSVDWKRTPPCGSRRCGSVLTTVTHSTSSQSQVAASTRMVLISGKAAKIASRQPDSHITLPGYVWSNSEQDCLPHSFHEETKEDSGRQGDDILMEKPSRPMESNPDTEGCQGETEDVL
Description: as §1, §2

human PTHR1 [2] = biological target: T1, human PTHR1; experiment: β-arrestin2-YFP recruitment in HEK293 cells transiently transfected with human PTHR1 (microscopy); type: cell-based; details: 30 nM PTH(1-34)-TMR; 100 nM conjugate or VHH; 30 min room temperature
Description: FIGS. 30A-30F: Assessment of β-arrestin recruitment. A HEK293-derived cell line stably expressing a β-arrestin2-YFP fusion^2 was transiently transfected with human PTHR1. […] (red) and the nuclei of all cells were counterstained with DAPI. […] Panels show the same field of view with signal for β-arrestin2-YFP. […] (FIG. 30E) The ligands or VHHs (and concentrations) applied to these cells are VHHPTHR (100 nM). (FIG. 30F) The ligands or VHHs (and concentrations) applied to these cells are Vehicle. Transfected cells were incubated with indicated ligands or VHHs at room temperature for 30 minutes. This solution was aspirated, and the cells were washed twice, fixed with paraformaldehyde, and imaged as described in methods. For each panel the bottom image corresponds to an expanded version of the inset marked by the rectangle in the top image.

SMILES: CC[C@H](C)[C@H](NC(=O)[C@H](CCC(=O)O)NC(=O)[C@H](CO)NC(=O)[C@@H](NC(=O)[C@@H](N)CO)C(C)C)C(=O)N[C@@H](CCC(N)=O)C(=O)N[C@@H](CC(C)C)C(=O)N[C@@H](CCSC)C(=O)N[C@@H](Cc1cnc[nH]1)C(=O)N[C@@H](CC(N)=O)C(=O)N[C@@H](CC(C)C)C(=O)NCC(=O)N[C@@H](CCCCN)C(=O)N[C@@H](Cc1cnc[nH]1)C(=O)N[C@@H](CC(C)C)C(=O)N[C@@H](CC(N)=O)C(=O)N[C@@H](CO)C(=O)N[C@@H](CCSC)C(=O)N[C@@H](CCC(=O)O)C(=O)N[C@@H](CCCN=C(N)N)C(=O)N[C@H](C(=O)N[C@@H](CCC(=O)O)C(=O)N[C@@H](Cc1c[nH]c2ccccc12)C(=O)N[C@@H](CC(C)C)C(=O)N[C@@H](CCCN=C(N)N)C(=O)N[C@@H](CCCCN)C(=O)N[C@@H](CCCCN)C(=O)N[C@@H](CC(C)C)C(=O)N[C@@H](CCC(N)=O)C(=O)N[C@@H](CC(=O)O)C(=O)N[C@H](C(=O)N[C@@H](Cc1cnc[nH]1)C(=O)N[C@@H](CC(N)=O)C(=O)N[C@@H](Cc1ccccc1)C(=O)O)C(C)C)C(C)C [PTH(1-34)]
- Max (normalized ± SD), hPTHR1 (human PTHR1 [1]): 1.00 ± 0.00
- Max (normalized ± SD), hPTHR1GFP (PTHR1GFP; maximal cAMP response, normalized): 1.00 ± 0.00
- EC50 (PTHR1GFP; mean ± SD, Inactive = response <5% of maximal, read-out: EC50, cAMP induction, hPTHR1GFP): 0.4 ± 0.8 nM
- Max (normalized ± SD), rPTHR1 (rat PTHR1): 1.00 ± 0.00
- Max (normalized ± SD), hPTHR2 (PTHR2): 1 ± 0
- relocalization of YFP-tagged β-arrestin to puncta (human PTHR1 [2]): effectively stimulated

From patent US11878063B2, “Engineered ligands and uses thereof” (Children's Medical Center Corporation, priority 2019, dated 2024)
